This note sets out measurements from ChEMBL document CHEMBL1141955, “Geometric diversity through permutation of backbone configuration in cyclic peptide libraries” (Bioorg Med Chem Lett, 2005).

The IC50 is the concentration that gives 50% inhibition.

The target in the experiment is Actin, cytoplasmic 1 (Xenopus laevis, UniProt O93400). The experiment is described as follows: Inhibitory activity against actin assembly in xenopus by polymerisation assay.

In the case of `NCCCC[C@@H]1NC(=O)[C@H](CCC(N)=O)NC(=O)[C@H]2CCCN2C(=O)[C@H](Cc2ccccc2)NC(=O)[C@@H](Cc2ccccc2)NC(=O)[C@H]2CCCN2C(=O)[C@@H](Cc2ccccc2)NC1=O`, the IC50 result was “Not Active”.
Turning to `NCCCC[C@@H]1NC(=O)[C@H](CCC(N)=O)NC(=O)[C@H]2CCCN2C(=O)[C@H](Cc2ccccc2)NC(=O)[C@@H](Cc2ccccc2)NC(=O)[C@H]2CCCN2C(=O)[C@@H](Cc2ccccc2)NC(=O)[C@H](CCCCN)NC(=O)[C@H](CCC(N)=O)NC(=O)[C@H]2CCCN2C(=O)[C@H](Cc2ccccc2)NC(=O)[C@@H](Cc2ccccc2)NC(=O)[C@H]2CCCN2C(=O)[C@@H](Cc2ccccc2)NC1=O`, where the note is “read-out: IC50”, the IC50 stood at 2000 nM.
